According to patent US20070225170A1, “2-Halo-6-Alkylphenyl-Substituted Tetramic Acid Derivatives” (BAYER CROPSCIENCE AKTIENGESELLSCHAFT, priority 2003, published 2007):

Experiments:
Avena sativa = experiment: Herbicidal post-emergence action, greenhouse; format: in vivo; details: 320 g of a.i./ha, greenhouse (T22-T24)
Experimental: (§1) Herbicidal Post-Emergence Action
(§2) Seeds of monocotyledonous and dicotyledonous weed and crop plants are placed into sandy loam in wood fibre pots, covered with soil and cultivated in a greenhouse under good growth conditions. 2-3 weeks after sowing, the test plants are treated at the one-leaf stage. The test compounds, formulated as wettable powders (WP), are, in various dosages with a water application rate of 600 l/ha (converted), with 0.2% of wetting agent added, sprayed onto the green parts of the plants. After the test plants were kept in the greenhouse under optimum growth conditions for about 3 weeks, the effect of the preparations is rated visually in comparison to untreated controls (herbicidal effect in percent (%): 100% effect=the plants have died, 0% effect=like control plants).

Lolium = experiment: Herbicidal post-emergence action, greenhouse; format: in vivo; details: 320 g of a.i./ha
Experimental: as §1, §2

Setaria = experiment: Herbicidal post-emergence action, greenhouse; format: in vivo; details: 320 g of a.i./ha
Experimental: as §1, §2

Sinapis = experiment: Herbicidal post-emergence action, greenhouse; format: in vivo; details: 320 g of a.i./ha, greenhouse (T22)
Experimental: as §1, §2

[1] = test system: greenhouse red spider mite (Tetranychus urticae); experiment: Tetranychus test (OP-resistant/spray treatment); format: in vivo
Experimental: Tetranychus Test (OP-Resistant/Spray Treatment)
To produce a suitable preparation of active compound, 1 part by weight of active compound is mixed with the stated amounts of solvents and emulsifier, and the concentrate is diluted with emulsifier-containing water to the desired concentration.
Discs of bean leaves (Phaseolus vulgaris), which are infested by all stages of the greenhouse red spider mite (Tetranychus urticae), are sprayed with a preparation of active compound of the desired concentration.
After the desired period of time, the activity in % is determined. 100% means that all spider mites have been killed; 0% means that none of the spider mites have been killed.

[2] = test system: larvae of the mustard beetle (Phaedon cochleariae); experiment: Phaedon test (spray treatment); format: in vivo; details: 100 g/ha
Experimental: Phaedon Test (Spray Treatment) To produce a suitable preparation of active compound, 1 part by weight of active compound is mixed with the stated amounts of solvents and emulsifier, and the concentrate is diluted with emulsifier-containing water to the desired concentration. Discs of Chinese cabbage (Brassica pekinensis) are sprayed with a preparation of active compound of the desired concentration and, after they have dried, populated with larvae of the mustard beetle (Phaedon cochleariae).

Stellaria = experiment: Herbicidal post-emergence action, greenhouse; format: in vivo; details: 320 g of a.i./ha
Experimental: as §1, §2

Amaranthus = experiment: Herbicidal post-emergence action, greenhouse; format: in vivo; details: 320 g of a.i./ha, second series (T27, T28)
Experimental: as §1, §2

Summer barley = experiment: Container trials with cereals in the greenhouse, without/with safener; details: in vivo
Summer wheat = experiment: as above; details: in vivo
Meloidogyne incognita = experiment: Meloidogyne test; format: in vivo; details: 20 ppm; nematicidal action by formation of galls on lettuce roots
Experimental: To produce a suitable preparation of active compound, 1 part by weight of active compound is mixed with the stated amounts of solvent and emulsifier, and the concentrate is diluted with water to the desired concentration.
Vessels are filled with sand, solution of active compound, Meloidogyne incognita egg/larvae suspension and lettuce seeds. The lettuce seeds germinate and the plants develop. On the roots, galls develop.
After the desired period of time, the nematicidal action is determined in % by the formation of galls. 100%, means that no galls have been found; 0% means that the number of galls on the treated plants corresponds to that of the untreated control.

[3] = greenhouse, second series (T25-T28)
[4] = greenhouse, second series (T26, T28)

Compound	herbicidal effect, Avena sativa (Avena sativa) [%]	herbicidal effect, Lolium (Lolium; greenhouse (T22-T24)) [%]	herbicidal effect, Setaria (Setaria; greenhouse (T22-T24)) [%]	herbicidal effect, Sinapis (Sinapis) [%]	Kill rate in % after 5d ([1]; 100 g/ha) [%]	Kill rate in % after 7d [2] [%]	herbicidal effect, Lolium (Lolium; [3]) [%]	herbicidal effect, Setaria (Setaria; [3]) [%]	herbicidal effect, Stellaria (Stellaria; [4]) [%]	herbicidal effect, Amaranthus (Amaranthus) [%]	Kill rate in % after 5d ([1]; 500 g/ha) [%]	Summer barley observed (%) (Summer barley)	Summer wheat observed (%) (Summer wheat)	Effect in % after 14d (Meloidogyne incognita) [%]	herbicidal effect, Stellaria (Stellaria; greenhouse (T23)) [%]
CCc1cc(C)cc(Br)c1C1=C(OC(=O)C(C)C)C(C)(C)NC1=O [I-b-2]	90	100	100	70	–	–	–	–	–	–	–	–	–	–	–
CCc1cc(C)cc(Br)c1C1=C(O)C(C)N(CC)C1=O (centres unmarked) [I-a-5]	80	90	100	–	90	–	–	–	–	–	–	–	–	–	–
CCc1cc(C)cc(Br)c1C1=C(O)CN(C2CC2)C1=O [I-a-7]	90	100	100	70	–	100	100	80	80	–	–	–	–	–	–
CCc1cc(C)cc(Br)c1C1=C(OC(=O)C(C)(C)C)C2CCCN2C1=O (centres unmarked) [I-b-1]	90	90	90	–	–	–	100	100	–	70	–	–	–	–	–
CCOC(=O)OC1=C(c2c(Br)cc(C)cc2CC)C(=O)N(CC)C1C (centres unmarked) [I-c-7]	80	90	100	–	–	–	–	–	–	–	90	10	–	–	–
CCOC(=O)OC1=C(c2c(Br)cc(C)cc2CC)C(=O)N(C)C1CC (centres unmarked) [I-c-6]	80	90	100	–	70	–	80	80	70	–	–	–	15	–	–
CCc1cc(C)cc(Br)c1C1=C(O)C(CC)N(C)C1=O (centres unmarked) [I-a-6]	80	100	100	70	80	100	–	–	–	–	–	–	–	–	–
CCc1cc(C)cc(Br)c1C1=C(O)C2CCCN2C1=O (centres unmarked) [I-a-1]	90	100	90	–	–	–	90	90	70	100	–	–	–	80	70
